Measured values published in ChEMBL document CHEMBL1201862, “PubChem BioAssay data set” (2004).
Active and inactive are the calls of the source.

Columns and labels:
cells [1] = settings: A549
[2] = Luminescence Cell-Based Dose Response HTS to Identify Inhibitors of 5'UTR Stem-Loop Driven Prion Protein mRNA Translation in H4 Neuroglioblastoma Cells. [Related pubchem assays: 1827 (Project Summary), 1813 (Primary HTS)]; type: functional
[3] = inhibitors of firefly luciferase expression or activity, dose response, H4 neuroglioma cells, luminescence (AID 1990); type: functional, cell-based
[4] = inhibitors of SNCA 5'UTR-driven reporter translation, confirmation, H4 neuroglioma cells, luminescence (AID 1988); type: functional, cell-based
[5] = target: Apoptotic protease-activating factor 1 (Homo sapiens, UniProt O14727); type: functional
[6] = target: Histone-lysine N-methyltransferase NSD2 (Homo sapiens, UniProt O96028); type: biochemical
[7] = human group III sPLA2 inhibitors, dose response, biochemical, QFRET, IC50 (AID 743457);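 further: green fluorescence rise as the enzyme cleaves BODIPY PC-A2 in liposomes; potency for inhibition of the enzyme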
[8] = target: RNA-editing ligase 1, mitochondrial (Trypanosoma brucei brucei, UniProt P86926); assay: TbREL1 ligase inhibitors, dose response, biochemical, fluorescence, Trypanosoma brucei (AID 1117295); type: functional
[9] = target: T1, Ubiquitin-conjugating enzyme E2 N (Homo sapiens, UniProt P61088); type: functional;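 further: Dose-response confirmation in a TR-FRET assay detecting UBC13-driven polyubiquitin chain formation, inhibition measured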
T1 sequence (P61088 whole entry): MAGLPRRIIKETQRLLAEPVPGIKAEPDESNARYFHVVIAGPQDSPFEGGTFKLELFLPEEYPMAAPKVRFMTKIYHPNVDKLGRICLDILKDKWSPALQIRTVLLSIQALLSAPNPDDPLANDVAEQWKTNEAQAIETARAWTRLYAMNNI

[10] = microbe, parasite or virus in culture; type: functional; settings: Mycobacterium tuberculosis
BHK-21 = assay: BHK-21 cell toxicity, dose response, cytotoxicity control, plate reader, cherry-pick samples (AID 687030); type: functional, cell-based; settings: Mesocricetus auratus
[11] = target: FAD-linked sulfhydryl oxidase ALR (Homo sapiens, UniProt P55789); assay: inhibitors of human ALR sulfhydryl oxidase, dose response, biochemical, H2O2 detection, luminescence, cherry-pick (AID 493248)
[12] = Counterscreen for activators of the function of SWI/SNF related, matrix associated, actin dependent regulator of chromatin, subfamily a, member 2 (SMARCA2, BRM): Luminescence-based cell-based high throughput dose response assay to identify non-selective compounds using the VP16 reporter assay.; type: functional
[13] = target: SWI/SNF-related matrix-associated actin-dependent regulator of chromatin subfamily A member 2 (Homo sapiens, UniProt P51531); assay: Luminescence-based cell-based high throughput dose response assay to identify activators of the function of SWI/SNF related, matrix associated, actin dependent regulator of chromatin, subfamily a, member 2 (SMARCA2, BRM).; type: functional
Major prion protein = Major prion protein (Homo sapiens, UniProt P04156); type: functional, cell-based
cells [14] = assay: cells
[15] = target: NAD-dependent protein deacylase sirtuin-5, mitochondrial (Homo sapiens, UniProt Q9NXA8); assay: SIRT5 desuccinylase inhibitors, dose response, biochemical, fluorescence imaging, cherry-pick, set 5 (AID 720591);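 further: desuccinylation of succinyl peptide AMC substrate read as fluorescence after trypsin release; potency of inhibitors that lower fluorescence and may act on trypsin instead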
cells [16] = settings: HEK293;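 further: cells exposed to compound for 48 hours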
[17] = HEK293 Cytotoxicity Assay Measured in Cell-Based System Using Plate Reader - 7071-01_Inhibitor_Dose_CherryPick_Activity_Set2.; type: functional
HEK293 = assay: HEK293T cell cytotoxicity, dose response, cytotoxicity control, ATP luminescence, cherry-pick samples (AID 687005); type: functional, cell-based; settings: Homo sapiens;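 further: cells exposed to compound for 48 hours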
HeLa = assay: HeLa cell cytotoxicity, dose response, cytotoxicity control, ATP luminescence, cherry-pick samples (AID 687004); type: functional, cell-based; settings: Homo sapiens
[18] = PAX5 activity inhibitors, dose response, selectivity assay for PAX8 inhibitor project, cell-based, plate reader, dry powder samples (AID 743047); type: functional;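 further: HEK293 cells carrying a Pax5 driven CD19 promoter luciferase reporter; potency of inhibitors that lower reporter luminescence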
[19] = cytotoxicity dependent on PAX8, dose response, cell-based, plate reader, dry powder (AID 743049); type: functional
[20] = cytotoxicity in OVCAR8 ovarian cancer cells, dose response, PAX8 project, cell-based, plate reader, dry powder samples (AID 743197); type: functional; settings: OVCAR-8
[21] = PAX2 cell-based inhibition, dose response, selectivity assay for PAX8 inhibitor project, plate reader, dry powder samples (AID 743048); type: functional;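 further: HEK293 cells carrying a WT1 promoter luciferase reporter driven by expressed Pax2; potency is for inhibition of Pax2 driven reporter signal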
[22] = cytotoxicity in COV434 cells, dose response, cytotoxicity control for PAX8 inhibitor project, cell-based, plate reader, dry powder, SA7 (AID 743145); type: functional
Paired box protein Pax-8 = Paired box protein Pax-8 (Homo sapiens, UniProt Q06710); assay: inhibitors of PAX8-driven TPO luciferase reporter, dose response, RMG-I cells, cherry-pick (AID 687027); type: functional, cell-based;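 further: luciferase reporter driven by Pax8 target thyroperoxidase promoter measured by SteadyGlo luminescence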
[23] = A2780 ovarian cancer cell cytotoxicity, dose response, cytotoxicity control, plate reader, dry powder samples (AID 743046); type: functional, cell-based

## CCC(=O)NCCCNc1nc2c(C)cccc2cc1C#N
Cells [1]
  AC50: > 52 µM (inactive)
[2]
  EC50: > 120 µM (not active)
[3]
  EC50: 25.9 µM (active)
[4]
  EC50: > 120 µM (not active)

## O=C1C(Cl)=C(NCCN2CCOCC2)C(=O)c2ccccc21
[5]
  IC50: 22 µM (active)
[6]
  AC50: 10.8 µM (active)

## Cc1ccccc1N=C(S)c1nc2ccccc2[nH]1
[7]
  IC50: > 122 µM (inactive)

## COc1ccc(C[C@H]2CN3C(=NC[C@H]3Cc3ccccc3)N2CCNC(=O)CCC2CCCCC2)cc1
[8]
  IC50: > 96.6 µM (inactive)
[9]
  IC50: > 20 µM (inactive)
[10]
  CC50: 23.8 µM (active)

## NNC(=O)c1ccc(-c2ccccc2F)cc1
BHK-21
  AC50: 19.3 µM (active)

## COc1ccc(-n2nnnc2S(=O)(=O)Cc2ccc(C(=O)O)cc2)cc1
[11]
  AC50: 0.038 µM (active)
[12]
  EC50: > 91.2 µM (inactive)
[13]
  EC50: > 91.2 µM (inactive)

## CN(C)S(=O)(=O)c1ccc(N2CCCC2)c(C(=O)Nc2nccs2)c1
Major prion protein
  IC50: 14.8 µM (inactive)
Cells [14]
  IC50: > 138 µM (inactive)

## CC(C)(C)OC(=O)N(CCc1ccccc1)Cc1ccccc1OCc1cccc(NC(=O)C2CCCC2)c1
[15]
  AC50: > 30 µM (inactive)

## Cc1cccn2c(=O)c3cc(C(=O)NCc4ccc(F)cc4)c(=N)n(CCCN4CCOCC4)c3nc12
Cells [16]
  AC50: > 52 µM (inactive)

## C[C@H]1CN([C@@H](C)CO)S(=O)(=O)c2ccc(C#Cc3cccc(F)c3)cc2O[C@@H]1CN(C)C(=O)NC1CCCCC1
[17]
  AC50: 8.15 µM (active)
HEK293
  AC50: 8.15 µM (active)
HeLa
  AC50: 34.4 µM (active)

## CCCC#Cc1ccc([C@@H]2[C@@H](C#N)N(S(=O)(=O)c3cccc(F)c3)[C@H]2CO)cc1
[18]
  AC50: 24.2 µM (active)
[19]
  AC50: 37 µM (active)
[20]
  AC50: 43.1 µM (active)
[21]
  AC50: 28.2 µM (active)
[22]
  AC50: > 70 µM (inactive)
Paired box protein Pax-8
  AC50: 5.96 µM (active)

## COc1ccc2c3c(n(C)c2c1)[C@H](CO)N(C(=O)Nc1ccc(F)cc1)CC31CCN(S(=O)(=O)c2cccc(C)c2)CC1
[20]
  AC50: 58 µM (active)
[23]
  AC50: 38.8 µM (active)
Paired box protein Pax-8
  AC50: 7.72 µM (active)
